From patent publication US9274101B2 (BIOLOG, Inc., priority 2001, dated 2016)
Read-outs that look alike come from different tables or passages of the source. Where a SMILES comes first, the peptide text is derived from it. [ ]: non-standard residue; d: D form.

What was measured:
[1] = test system: HL-60 cells; assay: HL-60 responses in PM1a, PM6, PM7 and PM8 plates; assay type: cell-based, human
Method: In this Example, methods for testing unattached cells for their ability to use various carbon sources including di and tri-peptides are described.
After washing, HL-60 cells were resuspended in DME-R. An aliquot of the cell suspension was counted by trypan blue exclusion and the cell density was adjusted to 1×10^6/mL. Fifty μL of DME-R were added to each well of the appropriate number of half area, 96-well plates. The cells were plated at a volume of 50 μL/well, giving a final cell density of 5×10^4/well. PM1a, MP6, PM7, and PM8 MICROPLATE testing plates were inoculated (these MICROPLATE testing plates are available from Biolog under license). For each plate containing chemicals and cells, a second, control plate containing only chemicals was prepared. All wells contained a total volume of 100 μL. Plates were incubated at 5% CO2, 90-100% humidity, and 37° C. for 1 hour prior to addition of the MTS/MPMS colorometric reagent (5 μL/well). The color formed in each well after an additional 24 hour incubation period, was measured on a plate reader at 490 nm with a reference wavelength of 650 nm. OD values from the control plate were subtracted from the OD values obtained with cells prior to normalizing the data to % negative control (cells without added energy source).

[2] = test system: Salmonella typhimurium auxotrophs hisF645 and pyrCΔ73; assay type: cell-based
[3] = test system: ten strains of E. coli; assay type: cell-based, Escherichia coli; also: key: +: indicates that the organism tested was capable of utilizing the carbon source listed; −: indicates that the organism tested was not capable of utilizing the carbon source listed; indicates weak positive reactions
[4] = test system: E. coli MG1655; assay type: cell-based, Escherichia coli
[5] = test system: HepG2 cells; assay: HepG2 cells cultured on CYTODEX 3 microcarriers, energy sources; assay type: cell-based, human; conditions: Homo sapiens, HepG2, 68 h, read-out: Responses of HepG2 Cells Cultured on Microcarriers After 68 hours in Culture and a 4 hour Color Development Period
Method: In this Example, methods for testing adherent cells cultured in suspension, for their ability to use multiple carbon sources are described. HepG2 cells were cultured as described in Example 30.
HepG2 cells were harvested by trypsinization for 3 minutes in 0.25% trypsin-1 mM EDTA and resuspended in an equal volume of culture medium. A viable cell count was obtained by trypan blue exclusion and the appropriate volume of the cell suspension to have 2.7×10^6 cells/0.1 gm CYTODEX 3 (Sigma C3275) microcarrier beads was determined. Microcarrier beads had been previously prepared by 1) rehydration in calcium-magnesium free (CMF) DPBS for 3 hours, 2) autoclaving for 15 minutes, and 3) washing twice in MEM without serum. The cell suspension was added to the beads in a 50 mL tube, and the volume adjusted to 5 mL. Cells were allowed to attach for 1 hour in an atmosphere of 5% CO2, 90-100% humidity, and 37° C., with resuspension every 15 minutes. The microcarriers were transferred to a 100×15 mm Petri dish in a total volume of 20 mL. Cultures were maintained as stationary cultures until used for assay.
The thixotropic suspending agent, methylcellulose (1500 cps, Sigma M0555), was included in the medium to keep the microcarriers suspended so that they could be accurately pipetted. The methylcellulose was prepared by autoclaving in 20 mL tissue culture water for 30 minutes, then mixing by shaking for 1 hour. The initial concentration of methylcellulose was […]. The methylcellulose was then diluted 1:1 in 2× DME with or without glucose, then supplemented with 10% HI FBS; this yields a methylcellulose concentration of 1.36%. Beads were transferred to a 50 mL tube, allowed to settle and resuspended in DPBS. The washed beads were then resuspended in DME with 10% HI FBS and penicillin-streptomycin but without glucose, L-glutamine, sodium pyruvate, or phenol red. An equal volume of 1.36% methylcellulose was added and mixed by pipetting.
For the assay, 70 μL of DME with 10% HI FBS and penicillin-streptomycin but without glucose, L-glutamine, sodium pyruvate, or phenol red were added to each well, followed by 30 μL of the appropriate dilution of each test energy source. Stocks of 133 mM of each test chemical were prepared in tissue culture grade water, sterile filtered, and dilutions were prepared in a master plate so that, upon dilution into a regular 96-well MICROPLATE a total well volume of 200 μL, the final concentrations would be 0.033 to 20 mM. Negative control wells received 30 μL of tissue culture grade water. One hundred μL of beads were pipetted into each well. For each plate containing energy sources and cells, a second, control plate containing only energy sources was prepared. Plates were incubated at 5% CO2, 90-100% humidity, and 37° C. for 68 hours prior to addition of the MTS/MPMS colorometric reagent (10 μL/well). The color formed in each well 4-8 hours after addition of the colorimetric reagent, was measured with a plate reader at 490 nm with a reference wavelength of 650 nm. OD values from the control plate were subtracted from the OD values obtained with cells prior to normalizing the data to % negative control (cells without added energy source).

[6] = test system: E. coli MG1655; assay type: cell-based, Escherichia coli; remark: listed apart in the source
[7] = PM6, PM7, PM8, positive = greater than 130% of the negative control

Structure (SMILES): CC(C)C[C@H](NC(=O)CNC(=O)CN)C(=O)O
- response of HL-60 cells to peptides [1]: positive response

Structure (SMILES): Nc1ccn([C@H]2C[C@H](O)[C@@H](CO)O2)c(=O)n1 [2-deoxycytidine]
- growth stimulation (well color) [2]: turned purple

Structure (SMILES): O=c1ccn([C@H]2C[C@H](O)[C@@H](CO)O2)c(=O)[nH]1 [2-deoxyuridine]
- growth stimulation (well color) [2]: turned purple

Structure (SMILES): Nc1ncnc2c1ncn2[C@H]1C[C@H](O)[C@@H](CO)O1 [2′-deoxy-adenosine]
- growth stimulation (well color) [2]: turned weakly purple
- carbon source utilization [3]: +

Structure (SMILES): Nc1nc2c(ncn2[C@H]2C[C@H](O)[C@@H](CO)O2)c(=O)[nH]1 [2′deoxyguanosine]
- growth stimulation (well color) [2]: turned weakly purple

Structure (SMILES): C[C@@H](N)C(=O)N[C@H](C)C(=O)O [D-ala-D-ala] (H-[dA]-[dA]-OH)
- response of HL-60 cells to peptides [1, 7]: positive response

Structure (SMILES): O=c1ccn([C@@H]2O[C@H](CO)[C@@H](O)[C@H]2O)c(=O)[nH]1 [Uridine]
- suitability as nitrogen source (growth, purple color) [4]: not suitable
- growth stimulation (well color) [2]: turned purple
- activity at 30 µM ([5]; Conc. 0.03 mM): 102%
- activity at 100 µM ([5]; Conc. 0.10 mM): 109%
- activity at 330 µM ([5]; Conc. 0.33 mM): 99%
- activity at 1000 µM ([5]; Conc. 1.00 mM): 109%
- activity at 3300 µM ([5]; Conc. 3.3 mM): 106%
- activity at 10000 µM ([5]; Conc. 10 mM): 94.8%
- activity at 15000 µM ([5]; Conc. 15 mM): 74.1%
- activity at 20000 µM ([5]; Conc. 20 mM): 31.9%
- carbon source utilization [3]: +

Structure (SMILES): Nc1ncnc2c1ncn2[C@@H]1O[C@H](CO)[C@@H](OP(=O)(O)O)[C@H]1O [adenosine 3-monophosphate]
- suitability as phosphorus source (growth, purple color) [6]: positive
- growth stimulation (well color) [2]: turned weakly purple

Structure (SMILES): C[C@H](N)C(=O)N[C@@H](CCC(N)=O)C(=O)O [ala-gln] (H-Ala-Gln-OH)
- suitability as nitrogen source (growth, purple color) [4]: positive
- response of HL-60 cells to peptides [1, 7]: positive response

Structure (SMILES): N[C@@H](CS)C(=O)NCC(=O)O [cys-gly]
- suitability as sulfur source (growth, purple color) [6]: positive
- response of HL-60 cells to peptides [1, 7]: positive response

Structure (SMILES): Nc1ccn([C@@H]2O[C@H](CO)[C@@H](O)[C@H]2O)c(=O)n1 [cytidine]
- growth stimulation (well color) [2]: turned purple

Structure (SMILES): Nc1cc[nH]c(=O)n1 [cytosine]
- suitability as nitrogen source (growth, purple color) [4]: not suitable
- growth stimulation (well color) [2]: turned purple

Structure (SMILES): NC(=O)CC[C@H](N)C(=O)N[C@@H](CCC(=O)O)C(=O)O [gln-glu] (H-Gln-Glu-OH)
- response of HL-60 cells to peptides [1, 7]: positive response

Structure (SMILES): NCC(=O)N[C@H](CO)C(=O)O [gly-D-ser] (H-Gly-[dS]-OH)
- response of HL-60 cells to peptides [1, 7]: positive response

Structure (SMILES): CC(C)[C@@H](NC(=O)CN)C(=O)O [gly-D-val] (H-Gly-[dV]-OH)
- response of HL-60 cells to peptides [1, 7]: positive response

Structure (SMILES): CC[C@H](C)[C@H](NC(=O)CNC(=O)CN)C(=O)O [gly-gly-ile] (H-Gly-Gly-Ile-OH)
- response of HL-60 cells to peptides [1, 7]: positive response

Structure (SMILES): NCC(=O)NCC(=O)O [gly-gly] (H-Gly-Gly-OH)
- response of HL-60 cells to peptides [1, 7]: positive response

Structure (SMILES): NCC(=O)N[C@@H](Cc1cnc[nH]1)C(=O)O [gly-his] (H-Gly-His-OH)
- response of HL-60 cells to peptides [1, 7]: positive response

Structure (SMILES): CC(C)[C@H](NC(=O)CN)C(=O)O [gly-val] (H-Gly-Val-OH)
- response of HL-60 cells to peptides [1, 7]: positive response

Structure (SMILES): Nc1nc2nc[nH]c2c(=O)[nH]1 [guanine]
- growth stimulation (well color) [2]: turned weakly purple

Structure (SMILES): N[C@@H](Cc1cnc[nH]1)C(=O)N[C@@H](CC(=O)O)C(=O)O [his-asp] (H-His-Asp-OH)
- response of HL-60 cells to peptides [1, 7]: positive response

Structure (SMILES): N[C@@H](Cc1cnc[nH]1)C(=O)N[C@@H](Cc1cnc[nH]1)C(=O)O [his-his]
- response of HL-60 cells to peptides [1, 7]: positive response

Structure (SMILES): CC[C@H](C)[C@H](N)C(=O)N[C@@H](CCC(N)=O)C(=O)O [ile-gln] (H-Ile-Gln-OH)
- response of HL-60 cells to peptides [1, 7]: positive response

Structure (SMILES): N[C@@H](Cc1ccccc1)C(=O)N[C@@H](CC(=O)O)C(=O)O [phe-asp] (H-Phe-Asp-OH)
- response of HL-60 cells to peptides [1, 7]: positive response

Structure (SMILES): C[C@H](NC(=O)[C@@H]1CCCN1)C(=O)O [pro-ala] (H-Pro-Ala-OH)
- response of HL-60 cells to peptides [1, 7]: positive response

Structure (SMILES): O=C(O)[C@H](Cc1c[nH]c2ccccc12)NC(=O)[C@@H]1CCCN1 [pro-trp] (H-Pro-Trp-OH)
- response of HL-60 cells to peptides [1, 7]: positive response

Structure (SMILES): CC(C)CC(NC(=O)C(N)CO)C(=O)O (stereo not drawn) [ser-leu] (H-Ser-Leu-OH; configuration not given here)
- response of HL-60 cells to peptides [1, 7]: positive response

Structure (SMILES): CSCC[C@H](NC(=O)[C@@H](N)CO)C(=O)O [ser-met] (H-Ser-Met-OH)
- response of HL-60 cells to peptides [1, 7]: positive response

Structure (SMILES): N[C@@H](CO)C(=O)N[C@@H](Cc1ccccc1)C(=O)O [ser-phe]
- response of HL-60 cells to peptides [1]: positive response

Structure (SMILES): CSCC[C@H](NC(=O)[C@@H](N)[C@@H](C)O)C(=O)O [thr-met] (H-Thr-Met-OH)
- response of HL-60 cells to peptides [1, 7]: positive response

Structure (SMILES): C[C@@H](O)[C@H](N)C(=O)N1CCC[C@H]1C(=O)O [thr-pro] (H-Thr-Pro-OH)
- response of HL-60 cells to peptides [1, 7]: positive response

Structure (SMILES): C[C@@H](O)[C@H](N)C(=O)N[C@@H](CO)C(=O)O [thr-ser] (H-Thr-Ser-OH)
- response of HL-60 cells to peptides [1, 7]: positive response

Structure (SMILES): C[C@H](NC(=O)[C@@H](N)Cc1ccc(O)cc1)C(=O)O [tyr-ala]
- response of HL-60 cells to peptides [1, 7]: positive response

Structure (SMILES): N[C@@H](Cc1ccc(O)cc1)C(=O)N[C@@H](Cc1ccccc1)C(=O)O [tyr-phe] (H-Tyr-Phe-OH)
- response of HL-60 cells to peptides [1, 7]: positive response

Structure (SMILES): CC(C)[C@H](NC(=O)[C@@H](N)Cc1ccc(O)cc1)C(=O)O [tyr-val] (H-Tyr-Val-OH)
- response of HL-60 cells to peptides [1, 7]: positive response

Structure (SMILES): O=c1cc[nH]c(=O)[nH]1 [uracil]
- suitability as nitrogen source (growth, purple color) [4]: not suitable
- growth stimulation (well color) [2]: turned purple

Structure (SMILES): CC(C)[C@H](N)C(=O)N[C@@H](CCC(N)=O)C(=O)O [val-gln] (H-Val-Gln-OH)
- response of HL-60 cells to peptides [1, 7]: positive response

Structure (SMILES): CC(C)[C@H](N)C(=O)N[C@@H](Cc1ccc(O)cc1)C(=O)N[C@H](C(=O)O)C(C)C [val-tyr-val] (H-Val-Tyr-Val-OH)
- response of HL-60 cells to peptides [1, 7]: positive response
